# Data reported in publication PMC6156078, “Thalidomide promotes degradation of SALL4, a transcription factor implicated in Duane Radial Ray syndrome” (eLife, 2018).
# Entries after “also recorded” stand apart in the source; their conditions may differ.
# How the values were obtained:
# [1] = tested on: SALL4; assay: Western blot of SALL4: thalidomide with proteasome/NEDD8/UBA1 inhibitor co-treatment; conditions: Kelly, HEK293T, SK-N-DZ cells; thalidomide + 5 µM bortezomib, 5 µM MLN4924 or 0.5 µM MLN7243, 24 h
# [2] = tested on: IMiD-dependent targets; assay: Rescue proteomics: pomalidomide with MLN4924 co-treatment in SK-N-DZ cells; conditions: 1 µM pomalidomide + 5 µM MLN4924, 5 h
# [3] = tested on: IMiD-dependent neo-substrates; assay: TMT proteomics profiling of IMiD-dependent neo-substrates (hESC, Kelly, SK-N-DZ, MM1s); assay type: cell-based, human; conditions: SK-N-DZ cells, 0.1 µM CC-220, 5 h (Figure 1—figure supplement 1C)
# Description: We established a mass spectrometry-based workflow (Figure 1—figure supplement 1A) to detect IMiD-induced protein degradation in hESC.
# Proteins were precipitated using methanol/chloroform.
# [4] = biological target: ZFP91 (Homo sapiens, UniProt Q96JP5+Q96SW2); assay: TMT proteomics SK-N-DZ cells: ZFP91 abundance; conditions: 5 h vs DMSO, pomalidomide 1 µM, lenalidomide 5 µM, CC-220 0.1 µM, dBET57 1 µM
# Chain of ZFP91 (Q96JP5 2-570 limits assumed): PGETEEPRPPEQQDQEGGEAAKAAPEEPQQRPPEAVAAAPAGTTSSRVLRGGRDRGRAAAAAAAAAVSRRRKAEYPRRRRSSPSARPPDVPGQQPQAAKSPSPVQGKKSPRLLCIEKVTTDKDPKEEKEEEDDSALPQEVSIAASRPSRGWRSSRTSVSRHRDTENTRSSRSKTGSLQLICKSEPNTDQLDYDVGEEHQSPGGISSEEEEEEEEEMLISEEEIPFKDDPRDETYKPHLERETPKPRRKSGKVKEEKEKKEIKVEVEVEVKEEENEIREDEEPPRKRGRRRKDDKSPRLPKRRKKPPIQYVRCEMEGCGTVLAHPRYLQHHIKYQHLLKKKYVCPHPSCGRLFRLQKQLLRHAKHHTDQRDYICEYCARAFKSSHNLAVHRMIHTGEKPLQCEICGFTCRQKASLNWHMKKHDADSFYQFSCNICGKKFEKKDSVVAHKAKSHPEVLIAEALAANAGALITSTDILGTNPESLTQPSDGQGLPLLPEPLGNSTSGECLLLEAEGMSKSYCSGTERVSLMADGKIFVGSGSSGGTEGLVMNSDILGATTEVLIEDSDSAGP
# Chain of ZFP91 (Q96SW2 whole entry): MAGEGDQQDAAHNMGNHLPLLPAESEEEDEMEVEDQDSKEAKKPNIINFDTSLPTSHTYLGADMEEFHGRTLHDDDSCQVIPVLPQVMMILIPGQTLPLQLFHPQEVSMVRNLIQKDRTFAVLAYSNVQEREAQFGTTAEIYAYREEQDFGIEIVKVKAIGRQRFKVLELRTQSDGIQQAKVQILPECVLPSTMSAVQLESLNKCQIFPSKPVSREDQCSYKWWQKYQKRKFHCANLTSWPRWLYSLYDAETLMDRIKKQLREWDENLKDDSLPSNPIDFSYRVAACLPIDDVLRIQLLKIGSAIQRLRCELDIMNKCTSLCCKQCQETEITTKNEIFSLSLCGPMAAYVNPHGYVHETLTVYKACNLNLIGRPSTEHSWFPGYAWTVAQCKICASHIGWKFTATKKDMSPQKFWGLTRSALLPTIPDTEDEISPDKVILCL
# Chain of ZFP91 (Q16531 whole entry partner): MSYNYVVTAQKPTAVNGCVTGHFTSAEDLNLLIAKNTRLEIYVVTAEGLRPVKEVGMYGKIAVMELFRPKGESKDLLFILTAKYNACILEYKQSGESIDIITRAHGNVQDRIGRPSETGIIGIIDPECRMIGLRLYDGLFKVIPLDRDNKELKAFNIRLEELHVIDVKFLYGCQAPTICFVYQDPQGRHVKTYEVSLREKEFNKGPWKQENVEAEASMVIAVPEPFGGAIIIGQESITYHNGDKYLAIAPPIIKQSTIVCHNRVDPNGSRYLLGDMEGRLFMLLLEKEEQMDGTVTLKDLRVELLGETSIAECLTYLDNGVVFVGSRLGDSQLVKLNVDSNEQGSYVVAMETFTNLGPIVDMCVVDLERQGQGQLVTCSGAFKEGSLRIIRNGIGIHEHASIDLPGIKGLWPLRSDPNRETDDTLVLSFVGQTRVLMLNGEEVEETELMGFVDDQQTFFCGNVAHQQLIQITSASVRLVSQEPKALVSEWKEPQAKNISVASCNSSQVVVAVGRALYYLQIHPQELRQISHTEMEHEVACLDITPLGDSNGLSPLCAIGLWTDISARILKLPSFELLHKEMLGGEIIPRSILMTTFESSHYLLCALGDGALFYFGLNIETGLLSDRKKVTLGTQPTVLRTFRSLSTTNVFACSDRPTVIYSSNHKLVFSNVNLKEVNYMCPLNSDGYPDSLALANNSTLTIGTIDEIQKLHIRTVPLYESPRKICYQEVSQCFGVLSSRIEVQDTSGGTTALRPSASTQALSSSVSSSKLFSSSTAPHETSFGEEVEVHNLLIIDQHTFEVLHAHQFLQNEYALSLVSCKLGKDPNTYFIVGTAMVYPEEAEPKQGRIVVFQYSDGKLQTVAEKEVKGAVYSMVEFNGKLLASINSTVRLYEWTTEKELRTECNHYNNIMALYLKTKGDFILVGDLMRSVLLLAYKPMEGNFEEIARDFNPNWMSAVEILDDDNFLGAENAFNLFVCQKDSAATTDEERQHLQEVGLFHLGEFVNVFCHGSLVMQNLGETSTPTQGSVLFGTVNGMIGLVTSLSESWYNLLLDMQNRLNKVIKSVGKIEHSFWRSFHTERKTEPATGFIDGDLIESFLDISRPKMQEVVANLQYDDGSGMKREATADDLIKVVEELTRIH
# [5] = tested on: ATP5C1; assay: TMT proteomics SK-N-DZ cells: ATP5C1 abundance; conditions: 5 h vs DMSO, CC-220 0.1 µM
# [6] = tested on: MRPS5; assay: TMT proteomics SK-N-DZ cells: MRPS5 abundance; conditions: 5 h vs DMSO, CC-220 0.1 µM
# [7] = tested on: MRPL3; assay: TMT proteomics SK-N-DZ cells: MRPL3 abundance; conditions: 5 h vs DMSO, CC-220 0.1 µM
# [8] = tested on: CISD2; assay: TMT proteomics SK-N-DZ cells: CISD2 abundance; conditions: 5 h vs DMSO, CC-220 0.1 µM
# [9] = biological target: DDB1∆B-CRBN_(Spy-BodipyFL), Q16531;Q96SW2; assay: TR-FRET; conditions: terbium-streptavidin 4 nM, read off a plot
# [10] = value at the highest DDB1∆B-CRBN concentration (about 12.8 µM), SALL4 ZnF1-2 100 nM, thalidomide 50 µM, parent: est. 45
compound,measurement,setting,value
NS(=O)(=O)OC[C@@H]1C[C@@H](n2ccc3c(N[C@H]4CCc5ccccc54)ncnc32)C[C@@H]1O [MLN4924],effect of co-treatment on IMiD-induced SALL4 degradation,[1],abrogated
same,effect of co-treatment on IMiD-induced degradation of targets,[2],abrogated the degradation of all IMiD-dependent targets; also recorded: fully abrogated
O=C1CC[C@H](N2Cc3c(OCc4ccc(CN5CCOCC5)cc4)cccc3C2=O)C(=O)N1 [CC-220],induction of degradation of ZnF targets including SALL4,[3],effective inducers of ZnF targets including SALL4 degradation
same,logFC ZFP91,[4],-2.809
same,logFC ATP5C1,[5],-0.1591
same,logFC MRPS5,[6],-0.1562
same,logFC MRPL3,[7],-0.1878
same,logFC CISD2,[8],-0.1946
_(Strep-BirA)hsSALL4_(378-438) (ZnF1-2) (from UniProt Q9UJQ4) G416N,response,[9]; [10],6 520/490
CC(C)C[C@H](NC(=O)[C@H](Cc1ccccc1)NC(=O)c1cnccn1)B(O)O [bortezomib],effect of co-treatment on IMiD-induced SALL4 degradation,[1],abrogated
NS(=O)(=O)OC[C@H]1C[C@@H](Nc2ccnc3cc(-c4cccc(SC(F)(F)F)c4)nn23)[C@H](O)[C@@H]1O [MLN7243],effect of co-treatment on IMiD-induced SALL4 degradation,[1],abrogated
_(Strep-BirA)hsSALL4_(378-438) (ZnF1-2) (from UniProt Q9UJQ4) S388N,response,[9]; [10],45 520/490
same,response,"[9]; value at the highest lenalidomide dose (log[Len] about -4.4 M), DDB1∆B-CRBN 200 nM, SALL4 ZnF1-2 100 nM, parent: est. 2.6",1.6 520/490
same,response,"[9]; value at the highest pomalidomide dose (log[Pom] about -4.4 M), DDB1∆B-CRBN 200 nM, SALL4 ZnF1-2 100 nM, parent: est. 4.1",2.6 520/490
same,response,"[9]; value at the highest thalidomide dose (log[Thal] about -4.4 M), DDB1∆B-CRBN 200 nM, SALL4 ZnF1-2 100 nM, parent: est. 3.7",2.2 520/490
_(Strep-BirA)hsSALL4_(402-436) (ZnF2) (from UniProt Q9UJQ4) G416A,response,"[9]; value at the highest lenalidomide dose (log[Len] about -4.4 M), DDB1∆B-CRBN 200 nM, SALL4 ZnF2 100 nM, parent: est. 0.47",0.075 520/490
same,response,"[9]; value at the highest pomalidomide dose (log[Pom] about -4.4 M), DDB1∆B-CRBN 200 nM, SALL4 ZnF2 100 nM, parent: est. 0.97",0.09 520/490
_(Strep-BirA)hsSALL4_(590-618) (ZnF4) (from UniProt Q9UJQ4) Q595H,response,"[9]; value at the highest thalidomide dose (log(Thal) about -4.5 M), DDB1∆B-CRBN 1 µM, SALL4 ZnF4 100 nM, parent: est. 0.27",0.19 520/490
